Experimental data taken from patent publication US10780090B2, “Heteroaryl compounds useful as inhibitors of SUMO activating enzyme” (Millennium Pharmaceuticals, Inc., priority 2014, dated 2020).

Target: recombinant human SAE enzyme (Homo sapiens (Human), UniProt Q9UBT2)
Assay: SAE HTRF enzyme assay
Type: biochemical
Settings: for inhibition at 0.111 µM: read-out: Percent Inhibition
Summary of the method: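 First, recombinant human SAE (0.11 nM) transfers Sumo-Flag onto Ubc9-GST using 0.5 μM ATP for 105 min at 24° C. Next, EDTA-containing detection buffer with labelled anti-Flag and anti-GST antibodies is added for 2 h. Finally, FRET is quantified and percent inhibition or IC50 derived.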

[1] = SAE inhibition at compound concentration 0.111 μM
[2] = SAE inhibition, class symbols, legend in nM

recombinant human SAE enzyme, sequence (Q9UBT2 whole entry): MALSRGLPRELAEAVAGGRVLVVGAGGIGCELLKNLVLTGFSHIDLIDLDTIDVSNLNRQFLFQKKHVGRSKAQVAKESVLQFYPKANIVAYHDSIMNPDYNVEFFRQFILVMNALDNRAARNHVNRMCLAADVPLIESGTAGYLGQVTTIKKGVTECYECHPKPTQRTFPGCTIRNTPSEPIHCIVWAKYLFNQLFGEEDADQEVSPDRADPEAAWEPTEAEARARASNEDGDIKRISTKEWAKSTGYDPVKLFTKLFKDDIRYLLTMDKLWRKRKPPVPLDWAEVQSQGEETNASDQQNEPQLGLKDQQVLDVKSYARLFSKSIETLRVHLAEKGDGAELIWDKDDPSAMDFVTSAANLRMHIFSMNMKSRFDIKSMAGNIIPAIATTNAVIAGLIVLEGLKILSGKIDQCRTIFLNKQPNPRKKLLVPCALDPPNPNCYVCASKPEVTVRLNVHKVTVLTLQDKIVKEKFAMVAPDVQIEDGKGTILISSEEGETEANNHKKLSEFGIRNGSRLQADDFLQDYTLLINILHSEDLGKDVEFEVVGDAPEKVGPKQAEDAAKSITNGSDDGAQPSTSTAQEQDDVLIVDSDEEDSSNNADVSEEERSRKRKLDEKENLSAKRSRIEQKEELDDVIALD
recombinant human SAE enzyme, sequence (Q9UBE0 whole entry partner): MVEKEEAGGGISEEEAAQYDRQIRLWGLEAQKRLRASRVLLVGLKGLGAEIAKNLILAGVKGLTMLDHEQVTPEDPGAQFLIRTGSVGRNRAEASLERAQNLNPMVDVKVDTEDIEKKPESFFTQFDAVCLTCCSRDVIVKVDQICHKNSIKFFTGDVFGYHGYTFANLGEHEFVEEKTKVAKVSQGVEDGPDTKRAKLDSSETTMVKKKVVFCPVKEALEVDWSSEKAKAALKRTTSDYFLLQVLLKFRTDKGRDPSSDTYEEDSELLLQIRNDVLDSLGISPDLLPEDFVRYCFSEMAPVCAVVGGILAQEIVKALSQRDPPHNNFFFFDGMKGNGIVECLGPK

Molecule	Percent Inhibition (Concentration 0.111 μM)	IC50 (class symbols A/B/C) [nM]	inhibition at 0.111 µM (Concentration 0.111 μM) [%]	Percent Inhibition [1] [%]	IC50 [2] [nM]
N[C@H](c1cccc(Br)c1)c1cc(C(=O)c2cncnc2N[C@@H]2C[C@H](COS(N)(=O)=O)[C@@H](O)[C@H]2O)sc1Cl (single isomer, unassigned) [I-24a, [(1R,2R,3S,4R)-4-{[5-({4-[(R)-amino(3-bromophenyl)methyl]-5-chloro-2-thienyl}carbonyl)pyrimidin-4-yl]amino}-2,3-dihydroxycyclopentyl]methyl sulfamate or [(1R,2R,3S,4R)-4-{[5-({4-[(S)-amino(3-bromophenyl)methyl]-5-chloro-2-thienyl}carbonyl)pyrimidin-4-yl]amino}-2,3-dihydroxycyclopentyl]methyl sulfamate]	101	< 10			
NS(=O)(=O)OC[C@H]1C[C@@H](Nc2ncncc2C(=O)c2cc(C3(c4cccc(Cl)c4)CCCO3)cs2)C[C@@H]1O (single isomer, unassigned) [I-20a, [(1R,2S,4R)-4-{[5-({4-[(2S)-2-(3-chlorophenyl)tetrahydrofuran-2-yl]-2-thienyl}carbonyl)pyrimidin-4-yl]amino}-2-hydroxycyclopentyl]methyl sulfamate or [(1R,2S,4R)-4-{[5-({4-[(2R)-2-(3-chlorophenyl)tetrahydrofuran-2-yl]-2-thienyl}carbonyl)pyrimidin-4-yl]amino}-2-hydroxycyclopentyl]methyl sulfamate]	81	10 to 100			
Cc1sc(C(=O)c2cncnc2N[C@@H]2C[C@H](COS(N)(=O)=O)[C@@H](O)C2)cc1[C@@H]1OCCc2ccc(Cl)cc21 [I-257b, [(1R,2S,4R)-4-{[5-({4-[(1R)-7-Chloro-3,4-dihydro-1H-isochromen-1-yl]-5-methyl-2-thienyl}carbonyl)pyrimidin-4-yl]amino}-2-hydroxycyclopentyl]methyl sulfamate]		< 10	99		
NS(=O)(=O)OC[C@H]1C[C@@H](Nc2ncncc2C(=O)c2ccc(Cc3cccc(Cl)c3)o2)C[C@@H]1O [I-93, [(1R,2S,4R)-4-({5-[5-(3-chlorobenzyl)-2-furoyl]pyrimidin-4-yl}amino)-2-hydroxycyclopentyl]methyl sulfamate]			98		
NS(=O)(=O)OC[C@H]1C[C@@H](Nc2ncncc2C(=O)c2cc([C@H](O)c3cccc(Cl)c3)c(Cl)s2)C[C@@H]1O (single isomer, unassigned) [I-9b, [(1R,2S,4R)-4-{[5-({5-chloro-4-[(R)-(3-chlorophenyl)(hydroxy)methyl]-2-thienyl}carbonyl)pyrimidin-4-yl]amino}-2-hydroxycyclopentyl]methyl sulfamate or [(1R,2S,4R)-4-{[5-({5-chloro-4-[(S)-(3-chlorophenyl)(hydroxy)methyl]-2-thienyl}carbonyl)pyrimidin-4-yl]amino}-2-hydroxycyclopentyl]methyl sulfamate]	97	< 10			
N#Cc1sc(C(=O)c2cncnc2N[C@@H]2C[C@H](COS(N)(=O)=O)[C@@H](O)C2)cc1Cc1cccc(Cl)c1 [I-179, {(1R,2S,4R)-4-[(5-{[4-(3-chlorobenzyl)-5-cyano-2-thienyl]carbonyl}pyrimidin-4-yl)amino]-2-hydroxycyclopentyl}methyl sulfamate]		10 to 100	86		
NS(=O)(=O)OCC1CC(Nc2ncncc2C(=O)c2cc(C3OCCc4ccc(Cl)cc43)c(Cl)s2)CC1O (mixture of isomers) [I-282, [(1R,2S,4R)-4-{[5-({5-chloro-4-[(1R)-7-chloro-3,4-dihydro-1H-isochromen-1-yl]-2-thienyl}carbonyl)pyrimidin-4-yl]amino}-2-hydroxycyclopentyl]methyl sulfamate and [(1R,2S,4R)-4-{[5-({5-chloro-4-[(1S)-7-chloro-3,4-dihydro-1H-isochromen-1-yl]-2-thienyl}carbonyl)pyrimidin-4-yl]amino}-2-hydroxycyclopentyl]methyl sulfamate]				100	< 10
C[C@](O)(c1ccccc1)c1coc(C(=O)c2cncnc2N[C@@H]2C[C@H](COS(N)(=O)=O)[C@@H](O)C2)c1 (single isomer, unassigned) [I-58b, {(1R,2S,4R)-2-hydroxy-4-[(5-{4-[(1S)-1-hydroxy-1-phenylethyl]-2-furoyl}pyrimidin-4-yl)amino]cyclopentyl}methyl sulfamate or {(1R,2S,4R)-2-hydroxy-4-[(5-{4-[(1R)-1-hydroxy-1-phenylethyl]-2-furoyl}pyrimidin-4-yl)amino]cyclopentyl}methyl sulfamate]	100	< 10			
NS(=O)(=O)OC[C@H]1C[C@@H](Nc2ncncc2C(=O)c2cc([C@@H]3OCCc4ccccc43)cs2)C[C@@H]1O (single isomer, unassigned) [I-254b, [(1R,2S,4R)-4-{[5-({4-[(1R)-3,4-dihydro-1H-isochromen-1-yl]-2-thienyl}carbonyl)pyrimidin-4-yl]amino}-2-hydroxycyclopentyl]methyl sulfamate or [(1R,2S,4R)-4-{[5-({4-[(S)-3,4-dihydro-1H-isochromen-1-yl]-2-thienyl}carbonyl)pyrimidin-4-yl]amino}-2-hydroxycyclopentyl]methyl sulfamate]	99	< 10			
NS(=O)(=O)OC[C@H]1C[C@@H](Nc2ncncc2C(=O)c2cc([C@@H]3NCCc4ccccc43)cs2)C[C@@H]1O (single isomer, unassigned) [I-283b, [(1R,2S,4R)-2-hydroxy-4-{[5-({4-[(1R)-1,2,3,4-tetrahydroisoquinolin-1-yl]-2-thienyl}carbonyl)pyrimidin-4-yl]amino}cyclopentyl]methyl sulfamate or [(1R,2S,4R)-2-hydroxy-4-{[5-({4-[(1S)-1,2,3,4-tetrahydroisoquinolin-1-yl]-2-thienyl}carbonyl)pyrimidin-4-yl]amino}cyclopentyl]methyl sulfamate]				93	10 to 100
[(1R,2S,4R)-4-{[5-({5-chloro-4-[(1S)-1,2,3,4-tetrahydroisoquinolin-1-yl]-2-thienyl}carbonyl)pyrimidin-4-yl]amino}-2-hydroxycyclopentyl]methyl sulfamate and [(1R,2S,4R)-4-{[5-({5-chloro-4-[(1R)-1,2,3,4-tetrahydroisoquinolin-1-yl]-2-thienyl}carbonyl)pyrimidin-4-yl]amino}-2-hydroxycyclopentyl]methyl sulfamate [I-279]	99	< 10			
CC(O)(c1cccc(Br)c1)c1csc(C(=O)c2cncnc2N[C@@H]2C[C@H](COS(N)(=O)=O)[C@@H](O)C2)c1 (single isomer, unassigned) [I-3a, [(1R,2S,4R)-4-{[5-({4-[(1R)-1-(3-bromophenyl)-1-hydroxyethyl]-2-thienyl}carbonyl)pyrimidin-4-yl]amino}-2-hydroxycyclopentyl]methyl sulfamate or [(1R,2S,4R)-4-{[5-({4-[(1S)-1-(3-bromophenyl)-1-hydroxyethyl]-2-thienyl}carbonyl)pyrimidin-4-yl]amino}-2-hydroxycyclopentyl]methyl sulfamate]	92	10 to 100			
